# Test results reported in patent US6521665B1, “Method of treating insulin resistance” (priority 2001, dated 2003).
# Read-outs that look alike come from different tables or passages of the source.
# Key:
# [1] = tested on: non-insulin dependent diabetic humans; settings: for Mean plasma FFA / Mean plasma High Density Lipoprotein cholesterol (HDL) / Mean plasma Low Density Lipoprotein cholesterol (LDL) / Mean plasma Triglycerides / Mean plasma insulin / Mean serum glucose: NIDDM humans, orally 200 mg to 400 mg per day for 3 to 7 days
# Text: Patients. Twelve non-insulin dependent diabetic humans were studied. Non-insulin Dependent Diabetes Mellitus (NIDDM) was diagnosed in the humans according to the World Health Organisation criteria and had been presented for minimum 5 years. The NIDDM humans were metabolically stable and had glucose levels more than 12.8 mmol/l. Six patients were taking oral sulphonylurea hypoglicemic drug glibenclamide (rec. INN). None of the humans were undergoing hypolipidemic therapy. The humans had no additive metabolic disorders.
# Assays. Assays were used as described in the example 1 of the invention. Plasma insulin concentrations were determined by a double-antibody radioimmunoassay kit (Kabi Pharmacia Diagnostics, Uppsala, Sweden).
# Procedure. Pharmaceutical grade succinic acid in a unit dosage form of 100 mg per gelatin capsule was used. All patients received succinic acid orally in daily dose of 200 mg to 400 mg per day for period of 3 to 7 days.
# Plasma free fatty acid levels, insulin levels and serum glucose levels, plasma high density lipoprotein cholesterol (HDL-cholesterol), low density lipoprotein cholesterol (LDL-cholesterol) and triglycerides were measured in humans at zero day (before treatment ), at third and fifth days (treatment period), and at tenth, fifteen twentieth, twenty fifth thirtieth and fortieth days (after-treatment period).
# [2] = tested on: pancreatic islets; settings: MacDonald, Fahien, Diabetes 37(7): 997-999 (1988); cited from earlier work
# [3] = tested on: streptozotocin-induced rats; settings: for Mean plasma FFA / Mean plasma insulin / Mean serum glucose: experimental rats, 5 mg per kg s.c. daily for 7 days
# Experimental: Animals. Male albino Wistar rats 8-10 weeks of age 200-250 grams of body weight were used. The rats were housed at the temperature of 18±21° C. on a 12 hour light-dark cycle. Rats were fed on a stock laboratory diet (59% carbohydrates; 17% protein; 3% fat; 21% minerals, water, cellulose) and allowed water ad libitum. The streptozotocin (Sigma, St. Louis, Mo., USA) solved in citrate buffer (0.05M, pH 5.5) was injected into tail vein of male albino Wistar rats in a dose of 35 mg per kg of animal body weight to induce decompensated insulin resistance. The rats with levels of glucose more than 14.0 mmol/l were used in the experiment one week after the streptozotocin injection.
# (§1) Assays. Plasma free fatty acids levels were determined by enzymatic method with a commercially available kit (Waho Chemicals Gmbh, Neuss, Germany) with Multistat 3 centrifugal analyzer (Instrumentation Laboratories, Lexington, USA).
# (§2) Serum glucose concentrations were determined by the glucose oxidase method with a kit (Lachema, Slov.) with glucose analyzer (Beckman, Fullerton, Calif., USA).
# (§3) Plasma insulin concentrations were determined by a double-antibody radioimmunoassay kit (Kabi Pharmacia Diagnostics, Uppsala, Sweden) using a rat insulin standard (Novo Research Institute, Bagsvard, Denmark).
# Procedure. Streptozotocin-induced rats were assigned to two groups: a control rats (six rats) and experimental rats (fifteen rats). Experimental rats received daily injection (subcutaneously, 0.5 ml at 09.00 h) of water solution of succinic acid disodium salt hexahydrate in a dose of 5 mg per kg of body weight for period of 7 days.
# Plasma free fatty acid levels (FFA), plasma Insulin levels and serum glucose levels were measured in rats by tail clipping method at zero day (before treatment), at third, fifth and seventh days (treatment period), and at tenth, fifteen, twentieth, twenty fifth and thirtieth days (after-treatment period).
# [4] = tested on: healthy rats; settings: no changes during thirty days of the experiment
# Experimental: as §1, §2, §3
# [5] = day 10 (after treatment period)
# [6] = day 10 (after-treatment period)
# [7] = day 15 (after treatment period)
# [8] = day 15 (after-treatment period)
# [9] = day 20 (after treatment period)
# [10] = day 20 (after-treatment period)
# [11] = day 25 (after treatment period)
# [12] = day 25 (after-treatment period)
# [13] = day 30 (after treatment period)
# [14] = day 30 (after-treatment period)
# [15] = day 40 (after treatment period)
# [16] = day 40 (after-treatment period)
structure (smiles),measurement,setting,value
O=C(O)CCC(=O)O [succinic acid],Mean plasma FFA,[1]; day 0 (before treatment),0.240 ± 0.044 mmol/L
same,Mean plasma High Density Lipoprotein cholesterol (HDL),[1]; day 0 (before treatment),0.6 ± 0.4 mmol/L
same,Mean plasma Low Density Lipoprotein cholesterol (LDL),[1]; day 0 (before treatment),4.8 ± 0.3 mmol/L
same,Mean plasma Triglycerides,[1]; day 0 (before treatment),2.7 ± 0.3 mmol/L
same,Mean plasma insulin,[1]; day 0 (before treatment),140 ± 23 pmol/L
same,Mean serum glucose,[1]; day 0 (before treatment),14.8 ± 1.4 mmol/L
same,Mean plasma FFA,[1]; day 3 (treatment period),0.250 ± 0.071 mmol/L
same,Mean plasma High Density Lipoprotein cholesterol (HDL),[1]; day 3 (treatment period),0.7 ± 0.2 mmol/L
same,Mean plasma Low Density Lipoprotein cholesterol (LDL),[1]; day 3 (treatment period),4.9 ± 0.4 mmol/L
same,Mean plasma Triglycerides,[1]; day 3 (treatment period),2.8 ± 0.6 mmol/L
same,Mean serum glucose,[1]; day 3 (treatment period),14.5 ± 1.4 mmol/L
same,Mean plasma FFA,[1]; day 5 (treatment period),0.195 ± 0.064 mmol/L
same,Mean plasma High Density Lipoprotein cholesterol (HDL),[1]; day 5 (treatment period),0.8 ± 0.2 mmol/L
same,Mean plasma Low Density Lipoprotein cholesterol (LDL),[1]; day 5 (treatment period),4.7 ± 0.2 mmol/L
same,Mean plasma Triglycerides,[1]; day 5 (treatment period),2.7 ± 0.3 mmol/L
same,Mean serum glucose,[1]; day 5 (treatment period),14.9 ± 1.5 mmol/L
same,Mean plasma High Density Lipoprotein cholesterol (HDL),[1]; [5],1.2 ± 0.4 mmol/L
same,Mean plasma Low Density Lipoprotein cholesterol (LDL),[1]; [5],4.3 ± 0.6 mmol/L
same,Mean plasma Triglycerides,[1]; [5],2.5 ± 0.3 mmol/L
same,Mean plasma FFA,[1]; [6],0.184 ± 0.035 mmol/L
same,Mean plasma insulin,[1]; [6],134 ± 27 pmol/L
same,Mean serum glucose,[1]; [6],13.0 ± 2.0 mmol/L
same,Mean plasma High Density Lipoprotein cholesterol (HDL),[1]; [7],1.2 ± 0.3 mmol/L
same,Mean plasma Low Density Lipoprotein cholesterol (LDL),[1]; [7],4.0 ± 0.3 mmol/L
same,Mean plasma Triglycerides,[1]; [7],2.4 ± 0.4 mmol/L
same,Mean plasma FFA,[1]; [8],0.157 ± 0.032 mmol/L
same,Mean serum glucose,[1]; [8],13.1 ± 0.8 mmol/L
same,Mean plasma High Density Lipoprotein cholesterol (HDL),[1]; [9],1.2 ± 0.4 mmol/L
same,Mean plasma Low Density Lipoprotein cholesterol (LDL),[1]; [9],3.5 ± 0.4 mmol/L
same,Mean plasma Triglycerides,[1]; [9],1.8 ± 0.4 mmol/L
same,Mean plasma FFA,[1]; [10],0.161 ± 0.034 mmol/L
same,Mean plasma insulin,[1]; [10],124 ± 17 pmol/L
same,Mean serum glucose,[1]; [10],11.0 ± 1.0 mmol/L
same,Mean plasma High Density Lipoprotein cholesterol (HDL),[1]; [11],1.3 ± 0.2 mmol/L
same,Mean plasma Low Density Lipoprotein cholesterol (LDL),[1]; [11],3.4 ± 0.3 mmol/L
same,Mean plasma Triglycerides,[1]; [11],1.3 ± 0.2 mmol/L
same,Mean plasma FFA,[1]; [12],0.113 ± 0.046 mmol/L
same,Mean serum glucose,[1]; [12],9.4 ± 1.3 mmol/L
same,Mean plasma High Density Lipoprotein cholesterol (HDL),[1]; [13],1.5 ± 0.2 mmol/L
same,Mean plasma Low Density Lipoprotein cholesterol (LDL),[1]; [13],3.4 ± 0.2 mmol/L
same,Mean plasma Triglycerides,[1]; [13],1.1 ± 0.1 mmol/L
same,Mean plasma FFA,[1]; [14],0.086 ± 0.035 mmol/L
same,Mean plasma insulin,[1]; [14],118 ± 21 pmol/L
same,Mean serum glucose,[1]; [14],7.1 ± 0.6 mmol/L
same,Mean plasma High Density Lipoprotein cholesterol (HDL),[1]; [15],1.3 ± 0.2 mmol/L
same,Mean plasma Low Density Lipoprotein cholesterol (LDL),[1]; [15],3.5 ± 0.4 mmol/L
same,Mean plasma Triglycerides,[1]; [15],1.4 ± 0.2 mmol/L
same,Mean plasma FFA,[1]; [16],0.100 ± 0.022 mmol/L
same,Mean plasma insulin,[1]; [16],112 ± 14 pmol/L
same,Mean serum glucose,[1]; [16],5.8 ± 1.1 mmol/L
same,"change of plasma triglycerides, LDL cholesterol and HDL cholesterol","[1]; non-insulin dependent diabetic humans, especially in the after-treatment period","reducing plasma triglycerides and low density lipoprotein cholesterol, and increasing plasma high density lipoprotein cholesterol"
same,insulin sensitivity,"[1]; non-insulin dependent diabetic humans, maximal efficacy in the after-treatment period",improving in insulin sensitivity
same,insulin release,[2],did not stimulate insulin release
O.O.O.O.O.O.O=C([O-])CCC(=O)[O-].[Na+].[Na+] [succinic acid disodium salt hexahydrate],Mean plasma FFA,[3]; day 0 (before treatment),0.35 ± 0.03 mmol/L
same,Mean plasma insulin,[3]; day 0 (before treatment),11.0 ± 0.7 ng/mL
same,Mean serum glucose,[3]; day 0 (before treatment),15.7 ± 2.6 mmol/L
same,Mean plasma FFA,[3]; day 3 (treatment period),0.32 ± 0.04 mmol/L
same,Mean plasma insulin,[3]; day 3 (treatment period),10.2 ± 1.1 ng/mL
same,Mean serum glucose,[3]; day 3 (treatment period),15.8 ± 3.1 mmol/L
same,Mean plasma FFA,[3]; day 5 (treatment period),0.25 ± 0.06 mmol/L
same,Mean plasma insulin,[3]; day 5 (treatment period),7.4 ± 0.8 ng/mL
same,Mean serum glucose,[3]; day 5 (treatment period),13.0 ± 2.4 mmol/L
same,Mean plasma FFA,[3]; day 7 (treatment period),0.18 ± 0.05 mmol/L
same,Mean plasma insulin,[3]; day 7 (treatment period),4.2 ± 0.7 ng/mL
same,Mean serum glucose,[3]; day 7 (treatment period),10.0 ± 1.2 mmol/L
same,Mean plasma FFA,[3]; [6],0.20 ± 0.06 mmol/L
same,Mean plasma insulin,[3]; [6],3.1 ± 0.8 ng/mL
same,Mean serum glucose,[3]; [6],10.1 ± 2.0 mmol/L
same,Mean plasma FFA,[3]; [8],0.15 ± 0.03 mmol/L
same,Mean plasma insulin,[3]; [8],2.4 ± 0.4 ng/mL
same,Mean serum glucose,[3]; [8],8.1 ± 1.1 mmol/L
same,Mean plasma FFA,[3]; [10],0.10 ± 0.05 mmol/L
same,Mean plasma insulin,[3]; [10],2.1 ± 0.4 ng/mL
same,Mean serum glucose,[3]; [10],6.6 ± 0.8 mmol/L
same,Mean plasma FFA,[3]; [12],0.11 ± 0.04 mmol/L
same,Mean plasma insulin,[3]; [12],2.0 ± 0.3 ng/mL
same,Mean serum glucose,[3]; [12],5.7 ± 0.5 mmol/L
same,Mean plasma FFA,[3]; [14],0.13 ± 0.04 mmol/L
same,Mean plasma insulin,[3]; [14],2.1 ± 0.3 ng/mL
same,Mean serum glucose,[3]; [14],5.4 ± 0.7 mmol/L
same,insulin sensitivity,"[3]; insulin resistant rats in comparison with control insulin resistant rats, maximal efficacy in the after-treatment period",significant improving in insulin sensitivity
same,plasma free fatty acid levels,[4],0.08 ± 0.03 mmol/L
same,plasma insulin levels,[4],3.4 ± 0.6 ng/mL
same,serum glucose,[4],4.8 ± 0.4 mmol/L
